# From US12265087B2, “Olfactory receptor as microglia marker and use thereof” (DAEGU GYEONGBUK INSTITUTE OF SCIENCE AND TECHNOLOGY, priority 2019, dated 2025)
# How the values were obtained:
# [1] = test system: Hana3A cells expressing Olfr110; assay: Boyden chamber chemotaxis assay, Hana3A cells expressing Olfr110; type: cell-based; settings: 2-PF 10, 100 and 1000 μM
# Experimental: Chemotaxis was measured using a multi-well Boyden chamber. More specifically, a polycarbonate filter (8 μm pore; #101-8; Neuroprobe) was coated with […] fibronectin (Sigma-Aldrich) in PBS for 2 hours, and the coated filter was installed in a Boyden chamber. In addition, the bottom side of a plate was filled with serum-free DMEM containing 2-PF or a culture supernatant. Subsequently, microglia or Hana3A cells were transfected with an OR construct, and then suspended in serum-free DMEM. The microglia were kept at 37° C. for 4 hours, and the Hana3A cells for 8 hours. Cells that migrated to the bottom surface were fixed with 4% PFA, and stained with hematoxylin for 10 minutes. The migrated cells were counted under a light microscope in five randomly selected fixed […] fields (200×) using a scored eyepiece. A chemotaxis index was defined as the migrated cell number normalized against the untreated group.
# primary microglia = assay: Phagocytosis of FITC-dextran by primary microglia (FACS); type: cell-based, mouse; settings: 100, 300 and 500 μM
# Experimental: Primary microglia were seeded in 24-well plates (5×10^5 cells/well) and incubated for 24 hours. Cells were preincubated with 2-PF or Sup for 30 minutes, incubated with FITC-dextran (1 mg/ml, 20 mg/ml in PBS; #FD70S; Sigma Aldrich) in serum-free DMEM at 37° C. for […], and washed with PBS at 4° C. The cells were detached with 0.25% trypsin (#15090-046; Thermo Fisher Scientific) in PBS, and the detached cells were analyzed with FACS Accuri™ C6 (BD Biosciences). Mean fluorescence intensity (MFI) was calculated by integrating fluorescence histograms under each condition using the software. A phagocytosis index was defined as MFI, normalized against an untreated group.
# cerebral cortex = assay: Cytokine mRNA in the cerebral cortex after IP injection (qRT-PCR); type: in vivo, mouse; settings: 2-PF injection
# Source text: To measure mRNA, RNA was isolated from red blood cells, microglia, astrocytes, Hana3A cells or cerebral cortex cells using a MagNa lyser (Roche Molecular Diagnostics) with TRIzol reagent (Invitrogen, Carlsbad, Calif.) according to the manufacturer's protocols. Afterward, cDNA was synthesized through reverse transcription using isolated mRNA (using PrimeScript™ 1st str and cDNA Synthesis kit-#6110; Takara Bio Inc.). This process was quantitatively measured in real time through quantitative real-time-PCR (using a LightCycler® 480 SYBR Green I Master). The measurement values were calculated using a 2-ΔΔCt method.
# Olfr110 = assay: Immunostaining of Olfr110 expression after treatment; type: cell-based, mouse
# Experimental: Subsequently, cells were washed in PBS, and fixed with 4% paraformaldehyde (#6148; Sigma Aldrich) for 5 minutes. The cells were then incubated in PBS containing 4% normal horse serum (#008-000-121; Jackson ImmunoResearch) and 0.1% TWEEN® 20 (#P9416; Sigma-Aldrich) at room temperature for 1 hour. Afterward, the cells were […] at 4° C. overnight with primary antibodies listed below. The antibodies are as follows: Olfr110 (rabbit-anti-Olfr110; 1:10,000; #ab177327; Abcam), Iba-1 (goat-anti-Iba-1; 1:1,000; #ab5076; Abcam), and GFAP (mouse-anti-GFAP; 1:1,000; #556330; BD Biosciences). Samples were incubated in a PBS solution containing 0.1% TWEEN® 20 (#P9416; Sigma-Aldrich) with secondary antibodies at room temperature for 1 hour. The secondary antibodies are as follows: Cy3-conjugated donkey anti-rabbit IgG (1:1,000; #711-165-152; Jackson ImmunoResearch), Alexa488-conjugated donkey anti-goat IgG (1:1,000; #705-545-147; Jackson ImmunoResearch), and Alexa488-conjugated donkey anti-mouse IgG (1:1,000; #715-545-150; Jackson ImmunoResearch). Afterward, the cells were mounted with a Vectashield fluorescent material containing DAPI (#H-1200; Vector Laboratories), and images were obtained using a confocal laser scanning microscope, LSM 700, and the ZEN software (Zeiss). […]
# microglia = assay: Fura-2/AM calcium imaging of microglia; type: cell-based, mouse; settings: 2-PF 100, 300, 1000 μM
# Experimental: Twenty-four hours after newly isolated microglia were mounted on poly-D-lysine-coated 18-mm aperture microscope cover glasses (#0111580; Marienfeld), the microglia were incubated in a superfusion chamber for 30 minutes. The chamber contained 4 μM of Fura-2/AM (Ca^2+-sensitive fluorescent dye; #F1221; Thermo Fisher Scientific) in Ringer's solution (115 mM NaCl, 2.5 mM KCl, 1 mM CaCl2, 1.5 mM MgCl2, 4.5 mM HEPES, pH 7.4) filtered through a filter with a 0.22-μm pore. After calcium staining culture, the chamber was placed under an inverted microscope and washed with Ringer's solution for 20 minutes prior to […] treatment. Here, a flow rate of the solution is 12 ml/min. Subsequently, primary microglia were treated with 300 μM ATP (#A2383; Sigma Aldrich) for 5 seconds. After washing for 5 minutes, the primary microglia were treated with a 100 μM 2-PF solution for 5 seconds. This step was accomplished with two different concentrations (300 and 1000 μM) of 2-PF solution. Finally, the microglia were treated with a 300 μM ATP solution for 5 seconds. An emitted fluorescent material was photographed every 2 seconds using a CCD camera. Pseudo-color images were converted using fractional fluorescence changes (ΔF/F, Δ[Ca^2+]i). In addition, these images show changes in intracellular calcium ions. […]
structure (smiles),measurement,setting,value
"CCCCCc1ccco1 [2-PF, 2-pentylfuran]",mobility of Olfr110 cells (chemotaxis assay),[1],increased in mobility in a concentration-dependent manner
same,phagocytosis,primary microglia,significantly increased in a concentration-dependent manner
same,"expression level of inflammatory cytokines (Tnf, Il6, Il1b, Il10)",cerebral cortex,significantly increased
same,Olfr110 protein level,Olfr110,significantly increases
same,intracellular calcium ion levels,microglia,increased according to an injection amount
